Test results: US20240189438A1, “DRUG CONJUGATE OF GLUCOCORTICOID RECEPTOR AGONIST, AND APPLICATION THEREOF IN MEDICINE” (Shanghai Senhui Medicine Co., Ltd., priority 2021, published 2024)

Legend:
[1] = system: GRE reporter gene in A549 cells; experiment: GRE reporter gene assay in A549 cells (MMTV-Luc); format: cell-based; conditions: 24 h; for EC50: Homo sapiens
Protocol: 4. GRE reporter gene assay A549 cells were plated (40,000 cells/96-well plate), transfected with pGL4.36 (MMTV-Luc, 100 ng/well) using lipo3000, cultured overnight and then incubated with different concentrations of small-molecule steroids. After 24 h, the expression of luciferase in the reporter gene system was detected using the Bright-Glo (promega) assay reagent.

human recombinant GR = target: T1, human recombinant GR (Homo sapiens, UniProt P04150); experiment: human glucocorticoid NHR (radiolabeled agonist) binding assay; conditions: competition with 5 nM [3H]dexamethasone, 4° C., 24 h
T1 sequence (P04150 1-777): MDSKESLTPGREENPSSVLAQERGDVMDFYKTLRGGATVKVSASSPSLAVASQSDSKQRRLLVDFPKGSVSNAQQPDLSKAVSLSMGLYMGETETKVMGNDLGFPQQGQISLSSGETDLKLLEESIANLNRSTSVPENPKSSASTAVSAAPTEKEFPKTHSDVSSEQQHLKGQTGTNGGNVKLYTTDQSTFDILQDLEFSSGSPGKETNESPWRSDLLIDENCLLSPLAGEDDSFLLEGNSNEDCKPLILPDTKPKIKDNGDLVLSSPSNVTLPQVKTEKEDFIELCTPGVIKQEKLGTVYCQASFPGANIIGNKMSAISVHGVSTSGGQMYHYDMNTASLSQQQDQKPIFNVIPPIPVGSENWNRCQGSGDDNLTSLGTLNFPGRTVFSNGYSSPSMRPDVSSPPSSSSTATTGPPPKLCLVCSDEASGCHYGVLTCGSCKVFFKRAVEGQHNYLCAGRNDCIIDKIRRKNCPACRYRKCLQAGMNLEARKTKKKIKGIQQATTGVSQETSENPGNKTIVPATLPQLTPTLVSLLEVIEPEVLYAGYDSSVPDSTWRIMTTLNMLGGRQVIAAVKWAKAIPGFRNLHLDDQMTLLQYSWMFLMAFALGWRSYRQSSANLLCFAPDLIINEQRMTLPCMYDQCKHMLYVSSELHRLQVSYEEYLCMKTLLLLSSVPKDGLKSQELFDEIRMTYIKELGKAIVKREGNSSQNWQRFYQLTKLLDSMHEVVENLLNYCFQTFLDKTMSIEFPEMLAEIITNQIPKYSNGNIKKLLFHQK
Protocol: 2. Glucocorticoid Receptor Binding Assay
The assays were based on the following principle: Different concentrations of a small-molecule steroid and 5 nM [3H]dexamethasone are incubated with human recombinant GR at 4° C. for 24 h. The small-molecule steroid competes with [3H]dexamethasone for binding to human GR. The binding activity of the small-molecule steroid for GR can be calculated by counting the number of [3H]dexamethasone molecules that bind specifically to the receptor.

[2] = target: T2, mineralocorticoid receptor (MR) (Homo sapiens, UniProt P08235); experiment: Mineralocorticoid receptor agonist activity, PathHunter NHR nuclear translocation assay; format: cell-based; conditions: PathHunter NHR CHO-K1 cells
T2 construct: expressed in transfected cells; host or cells: PathHunter NHR CHO-K1 cells
T2 sequence (P08235 1-984): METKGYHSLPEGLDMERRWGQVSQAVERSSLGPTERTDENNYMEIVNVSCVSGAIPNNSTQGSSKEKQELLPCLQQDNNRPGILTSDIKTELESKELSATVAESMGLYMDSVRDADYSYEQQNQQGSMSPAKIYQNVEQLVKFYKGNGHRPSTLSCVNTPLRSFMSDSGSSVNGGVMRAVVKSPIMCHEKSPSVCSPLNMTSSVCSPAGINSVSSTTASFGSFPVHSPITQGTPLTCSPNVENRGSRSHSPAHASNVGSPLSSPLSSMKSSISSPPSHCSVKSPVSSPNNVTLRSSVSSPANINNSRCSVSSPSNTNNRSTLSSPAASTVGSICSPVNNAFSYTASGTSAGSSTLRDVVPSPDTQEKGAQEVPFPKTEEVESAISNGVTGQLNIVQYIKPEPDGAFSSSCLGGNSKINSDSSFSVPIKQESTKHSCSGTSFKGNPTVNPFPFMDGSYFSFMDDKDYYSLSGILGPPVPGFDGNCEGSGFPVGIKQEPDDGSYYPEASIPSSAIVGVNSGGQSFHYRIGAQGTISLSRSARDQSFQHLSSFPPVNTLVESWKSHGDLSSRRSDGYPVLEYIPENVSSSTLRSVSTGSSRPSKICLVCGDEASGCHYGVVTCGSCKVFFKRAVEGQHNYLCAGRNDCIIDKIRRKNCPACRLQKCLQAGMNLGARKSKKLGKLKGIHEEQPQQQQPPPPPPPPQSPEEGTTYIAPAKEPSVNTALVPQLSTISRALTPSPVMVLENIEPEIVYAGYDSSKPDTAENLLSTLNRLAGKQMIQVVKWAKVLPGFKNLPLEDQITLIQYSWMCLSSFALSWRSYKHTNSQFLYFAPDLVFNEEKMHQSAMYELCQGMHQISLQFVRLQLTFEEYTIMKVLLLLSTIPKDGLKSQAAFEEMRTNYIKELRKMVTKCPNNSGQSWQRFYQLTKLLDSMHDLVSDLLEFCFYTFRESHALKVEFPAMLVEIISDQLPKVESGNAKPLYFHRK
Protocol: 3. Mineralocorticoid Receptor Agonist Activity Assay The mineralocorticoid receptor (MR) agonist activity of small-molecule steroids was tested using a PathHunter® NHR nuclear translocation assay. PathHunter NHR CHO-K1 cells were plated onto a 384-well white-wall microplate and co-incubated with test small-molecule steroids at 37° C. in 5% CO2 to induce reactions. Assay signals were generated using the PathHunter assay reagent mix. After one hour of incubation at room temperature, chemiluminescent signals were detected. The data were analyzed using four-parameter curve fitting to generate EC50 values.

[3] = system: mouse collagen antibody-induced arthritis (CAIA) model; experiment: Mouse collagen antibody-induced arthritis (CAIA) model; format: in vivo; conditions: 10 mg/kg intraperitoneally twice a week; FIG. 6
Protocol: Male balb/c mice, 6 w, purchased from the Laboratory Animal Management Department, Shanghai Institute of Planned Parenthood Research. Housing environment: SPF; production license SCXK (Shanghai) 2018-0006; Balb/c mouse certification number: 20180006023393.
Upon arrival, the test animals were acclimatized for 7 days and randomly grouped. On day 0, each group of mice was intraperitoneally injected with 1.5 mg/mouse of type II collagen antibody cocktail (purchased from Chondrex Inc.) for modeling except for the control group. On day 3, each group of mice was intraperitoneally injected with […] of LPS (100 μL) to boost the immune response except for the control group. Administration to each group of mice began on day 5, and limb arthritis was scored every 1-3 days. Mice were dosed according to the following administration regimens. The severity of arthritis in each group of mice was semi-quantitatively scored every 1-3 days and further, the anti-inflammatory activity of anti-TNF-ADCs was evaluated.

Molecule | GRE reporter gene Emax [1] | EC50 [1] | IC50 (human recombinant GR) | EC50 [2] | anti-inflammatory activity in the CAIA model [3]
C[C@]12C=CC(=O)C=C1CC[C@@H]1[C@@H]2[C@@H](O)C[C@@]2(C)[C@H]1C[C@H]1O[C@@H](c3ccc(Cc4cccc(N)c4)cc3)O[C@]12C(=O)CO [A-A, reference compound] | 1.45E6 RLU | 0.6 nM |  |  | 
C[C@]12C=CC(=O)C=C1CC[C@@H]1[C@@H]2[C@@H](O)C[C@@]2(C)[C@H]1C[C@H]1O[C@@H](c3ccc(-c4ccc(-c5cccc(N)c5)cc4)cc3)O[C@]12C(=O)CO [Compound 1-A] | 7.67E5 RLU | 22.6 nM | 4.37 nM | > 200000 nM | 
C[C@]12C=CC(=O)C=C1CC[C@@H]1[C@@H]2[C@@H](O)C[C@@]2(C)[C@H]1C[C@H]1O[C@@H](c3ccc(C(=O)c4cccc(N)c4)cc3)O[C@]12C(=O)CO [Compound 2-A] |  |  | 6.69 nM | 220 nM | 
C[C@]12C=CC(=O)C=C1CC[C@@H]1[C@@H]2[C@@H](O)C[C@@]2(C)[C@H]1C[C@H]1O[C@@H](c3ccc(Cc4cccc5c(N)cccc45)cc3)O[C@]12C(=O)CO [Compound 3-A] | 1.53E6 RLU | 1.47 nM | 2.24 nM | 190 nM | 
C[C@]12C=CC(=O)C=C1CC[C@@H]1[C@@H]2[C@@H](O)C[C@@]2(C)[C@H]1C[C@H]1O[C@@H](c3ccc(C(F)(F)c4cccc(N)c4)cc3)O[C@]12C(=O)CO [Compound 4-A] | 1.69E6 RLU | 2.16 nM | 2.12 nM | 260 nM | 
C[C@]12C=CC(=O)C=C1CC[C@H]1[C@@H]3C[C@H]4O[C@@H](c5ccc(C(=O)c6cccc(N)c6)cc5)O[C@@]4(C(=O)CO)[C@@]3(C)C[C@H](O)[C@@]12F [Compound 5-A] | 2.3E7 RLU | 4.3 nM | 5.23 nM |  | 
adalimumab [Humira] |  |  |  |  | weak anti-inflammatory activity
